22 molecules from patent EP2768830B1, “APOPTOSIS-INDUCING AGENTS FOR THE TREATMENT OF CANCER AND IMMUNE AND AUTOIMMUNE DISEASES” (AbbVie Inc., priority 2011, dated 2013) can be followed below.

Each structure is given as a SMILES string. Where two headings read alike, the source gives them in different places. Bounds are passed on as bounds.

Experiment [1] has as its target GST-Bcl-xL (Homo sapiens, UniProt Q07817). The note with it: read-out: TR-FRET binding Bcl-xL Ki. Background: In TR-FRET formats the signal depends on donor and acceptor labels being close together.
The test system of experiment [2] is mouse FL5.12 cells transfected with Bcl-XL. In words: FL5.12 cellular assay (cell viability, CellTiter-Glo).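 Further: each EC50 determination derived from duplicate measurements.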 It counts as cell-based. The note with it: FL5.12 cells transfected with Bcl-XL, IL-3-depleted, 3% FBS assay media, 24 hours, CellTiter-Glo, read-out: FL5.12 Bcl-xL, - IL3, EC 50.
Description: For assaying the compound activity, the cells were exchanged into an IL-3-depleted deprivation media, which was identical to the growth media except for the absence of FBS and WEHI-3B conditional media, for 2 days. Then the cells were exchanged to 3% FBS assay media (RPMI with 2 mM glutamine, 1% 100 mM sodium pyruvate, 2% 1 M HEPES, 4 µL/L of β-mercaptoethanol, 1% penicillin-streptomycin, 3% FBS). Compounds in series dilutions were added, and the cells were cultured for 24 hours. Compounds in series dilutions were added, and the cells were cultured for 24 hours. Cell viability was assayed using the CellTiter-Glo assay (Promega Corp., Madison, WI) according to the manufacturer instructions. Individual determinations were the result of duplicate values.

Sequence of GST-Bcl-xL (Q07817 whole entry): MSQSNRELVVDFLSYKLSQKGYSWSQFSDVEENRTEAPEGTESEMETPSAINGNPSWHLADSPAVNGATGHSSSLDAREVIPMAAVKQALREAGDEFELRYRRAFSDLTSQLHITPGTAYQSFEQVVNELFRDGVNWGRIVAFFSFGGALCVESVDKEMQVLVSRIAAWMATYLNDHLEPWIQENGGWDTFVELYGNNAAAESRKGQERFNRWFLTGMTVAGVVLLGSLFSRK

As to `CN(C)CCCNc1ccc(Cn2cc(-c3ccc(N4CCc5cccc(C(=O)Nc6nc7ccccc7s6)c5C4)nc3C(=O)O)cn2)cc1[N+](=O)[O-]` [Example 44, 6-[8-(1,3-benzothiazol-2-ylcarbamoyl)-3,4-dihydroisoquinolin-2(1H)-yl]-3-[1-(4-{[3-(dimethylamino)propyl]amino}-3-nitrobenzyl)-1H-pyrazol-4-yl]pyridine-2-carboxylic acid], the Ki in experiment [1] came to 0.017 µM. In experiment [2] (Mus musculus), the EC50 is more than 1 µM.

In the case of `COCCC1(Cn2ncc(-c3ccc(N4CCc5cccc(C(=O)Nc6nc7ccccc7s6)c5C4)nc3C(=O)O)c2C)CCCCCC1` [Example 134, 6-[8-(1,3-benzothiazol-2-ylcarbamoyl)-3,4-dihydroisoquinolin-2(1H)-yl]-3-(1-{[1-(2-methoxyethyl)cycloheptyl]methyl}-5-methyl-1H-pyrazol-4-yl)pyridine-2-carboxylic acid], the inhibition constant Ki in experiment [1] was less than 0.0001 µM. Also, the EC50 in experiment [2] (Mus musculus) was 0.0009 µM.

For `COCCC1(Cn2ncc(-c3ccc(N4CCc5cccc(C(=O)Nc6nc7ccccc7s6)c5C4)nc3C(=O)NS(C)(=O)=O)c2C)CCCCCC1` [Example 148, N-(1,3-benzothiazol-2-yl)-2-{5-(1-{[1-(2-methoxyethyl)cycloheptyl]methyl}-5-methyl-1H-pyrazol-4-yl)-6-[(methylsulfonyl)carbamoyl]pyridin-2-yl}-1,2,3,4-tetrahydroisoquinoline-8-carboxamide], the Ki in experiment [1] was less than 0.0001 µM. For the same molecule, the EC50 in experiment [2] (Mus musculus) was 0.013 µM.

Consider `COCCOC1(Cn2c(C#N)cc(-c3ccc(N4CCc5cccc(C(=O)Nc6nc7ccccc7s6)c5C4)nc3C(=O)O)c2C)CCCCCC1` [Example 172, 6-[8-(1,3-benzothiazol-2-ylcarbamoyl)-3,4-dihydroisoquinolin-2(1H)-yl]-3-(5-cyano-1-{[1-(2-methoxyethoxy)cycloheptyl]methyl}-2-methyl-1H-pyrrol-3-yl)pyridine-2-carboxylic acid], for which the Ki in experiment [1] was less than 0.0001 µM. Moreover, in experiment [2] (Mus musculus), the EC50 was 0.001 µM.

With `Cc1c(NC2CCCCC2)cccc1-c1ccc(N2CCc3cccc(C(=O)Nc4nc5ccccc5s4)c3C2)nc1C(=O)O` [Example 118, 6-[8-(1,3-benzothiazol-2-ylcarbamoyl)-3,4-dihydroisoquinolin-2(1H)-yl]-3-[3-(cyclohexylamino)-2-methylphenyl]pyridine-2-carboxylic acid], the Ki in experiment [1] was determined as 0.0002 µM. Further, in experiment [2] (Mus musculus), the EC50 came to 0.361 µM.

As for `O=C(Nc1nc2ccccc2s1)c1cccc2c1CN(c1ccc(-c3cccc(Oc4ccc(Cl)cc4)c3)c(C(=O)O)n1)CC2` [Example 105, 6-[8-(1,3-benzothiazol-2-ylcarbamoyl)-3,4-dihydroisoquinolin-2(1H)-yl]-3-[3-(4-chlorophenoxy)phenyl]pyridine-2-carboxylic acid], the inhibitory constant (Ki) in experiment [1] came out at 0.007 µM. Moreover, in experiment [2] (Mus musculus), the EC50 was more than 1 µM.

Consider `O=C(Nc1nc2ccccc2s1)c1cccc2c1CN(c1ccc(-c3cccc(OC4CCCCC4)c3F)c(C(=O)O)n1)CC2` [Example 119, 6-[8-(1,3-benzothiazol-2-ylcarbamoyl)-3,4-dihydroisoquinolin-2(1H)-yl]-3-[3-(cyclohexyloxy)-2-fluorophenyl]pyridine-2-carboxylic acid], for which, in experiment [1], the Ki is less than 0.0001 µM. Further, in experiment [2], the EC50 is 0.762 µM.

Turning to `O=C(Nc1nc2ccccc2s1)c1cccc2c1CN(c1ccc(-c3cnn(Cc4cc(F)ccc4F)c3)c(C(=O)O)n1)CC2` [Example 54, 6-[8-(1,3-benzothiazol-2-ylcarbamoyl)-3,4-dihydroisoquinolin-2(1H)-yl]-3-[1-(2,5-difluorobenzyl)-1H-pyrazol-4-yl]pyridine-2-carboxylic acid], the Ki in experiment [1] turned out to be 0.015 µM. Further, the EC50 in experiment [2] (Mus musculus) was 0.501 µM.

Regarding `O=C(Nc1nc2ccccc2s1)c1cccc2c1CN(c1ccc(-c3cn(Cc4ccccc4)c4cnccc34)c(C(=O)O)n1)CC2` [Example 188, 6-[8-(1,3-benzothiazol-2-ylcarbamoyl)-3,4-dihydroisoquinolin-2(1H)-yl]-3-(1-benzyl-1H-pyrrolo[2,3-c]pyridin-3-yl)pyridine-2-carboxylic acid], the Ki in experiment [1] came to 0.0005 µM. Moreover, the EC50 in experiment [2] (Mus musculus) came out at 0.546 µM.

`O=C(Nc1nc2ccccc2s1)c1cccc2c1CN(c1ccc(-c3cnn(Cc4ccccc4OCCN4CCOCC4)c3)c(C(=O)O)n1)CC2` [Example 46, 6-[8-(1,3-benzothiazol-2-ylcarbamoyl)-3,4-dihydroisoquinolin-2(1H)-yl]-3-(1-{2-[2-(morpholin-4-yl)ethoxy]benzyl}-1H-pyrazol-4-yl)pyridine-2-carboxylic acid]: in experiment [1], the Ki was determined as 0.009 µM. Moreover, in experiment [2] (Mus musculus), the EC50 is more than 1 µM.

`Cc1c(-c2ccc(N3CCc4cccc(C(=O)Nc5nc6ccccc6s5)c4C3)nc2C(=O)O)cnn1CC1(OCC(=O)N2CCOCC2)CCCCC1` [Example 174, 6-[8-(1,3-benzothiazol-2-ylcarbamoyl)-3,4-dihydroisoquinolin-2(1H)-yl]-3-[5-methyl-1-({1-[2-(morpholin-4-yl)-2-oxoethoxy]cyclohexyl}methyl)-1H-pyrazol-4-yl]pyridine-2-carboxylic acid]: the Ki in experiment [1] was less than 0.0001 µM. In experiment [2] (Mus musculus), the EC50 worked out at 0.21 µM.

For the molecule `Cc1c(-c2ccc(N3CCc4cccc(C(=O)Nc5nc6ccccc6s5)c4C3)nc2C(=O)O)cnn1Cc1ccccc1OCC1COCCO1` (centres unmarked) [Example 100, 6-[8-(1,3-benzothiazol-2-ylcarbamoyl)-3,4-dihydroisoquinolin-2(1H)-yl]-3-{1-[2-(1,4-dioxan-2-ylmethoxy)benzyl]-5-methyl-1H-pyrazol-4-yl}pyridine-2-carboxylic acid], the Ki in experiment [1] came to 0.003 µM. Moreover, the EC50 in experiment [2] (Mus musculus) worked out at 0.066 µM.

As to `O=C(Nc1nc2ccccc2s1)c1cccc2c1CN(c1ccc(-c3ccnc(Oc4ccccc4)c3)c(C(=O)O)n1)CC2` [Example 140, 6-[8-(1,3-benzothiazol-2-ylcarbamoyl)-3,4-dihydroisoquinolin-2(1H)-yl]-2'-phenoxy-3,4'-bipyridine-2-carboxylic acid], the Ki in experiment [1] is 0.0023 µM. Further, the EC50 in experiment [2] (Mus musculus) is more than 1 µM.

`O=C(Nc1nc2ccccc2s1)c1cccc2c1CN(c1ccc(-c3cn(Cc4ccccc4)c4ncccc34)c(C(=O)O)n1)CC2` [Example 141, 6-[8-(1,3-benzothiazol-2-ylcarbamoyl)-3,4-dihydroisoquinolin-2(1H)-yl]-3-(1-benzyl-1H-pyrrolo[2,3-b]pyridin-3-yl)pyridine-2-carboxylic acid]: the Ki in experiment [1] stood at 0.001 µM. In addition, the EC50 in experiment [2] (Mus musculus) was found to be 0.433 µM.

For `COC1(Cn2ncc(-c3ccc(N4CCc5cccc(C(=O)Nc6nc7ccccc7s6)c5C4)nc3C(=O)O)c2C)CCCC(C)(C)C1` (centres unmarked) [Example 157, 6-[8-(1,3-benzothiazol-2-ylcarbamoyl)-3,4-dihydroisoquinolin-2(1H)-yl]-3-{1-[(1-methoxy-3,3-dimethylcyclohexyl)methyl]-5-methyl-1H-pyrazol-4-yl}pyridine-2-carboxylic acid], the Ki in experiment [1] is less than 0.0001 µM. The EC50 in experiment [2] (Mus musculus) came out at 0.0003 µM.

On to `COCCCC1(Cn2ncc(-c3ccc(N4CCc5cccc(C(=O)Nc6nc7ccccc7s6)c5C4)nc3C(=O)O)c2C)CCCCCC1` [Example 147, 6-[8-(1,3-benzothiazol-2-ylcarbamoyl)-3,4-dihydroisoquinolin-2(1H)-yl]-3-(1-{[1-(3-methoxypropyl)cycloheptyl]methyl}-5-methyl-1H-pyrazol-4-yl)pyridine-2-carboxylic acid], for which the Ki in experiment [1] is less than 0.0001 µM. Besides, the EC50 in experiment [2] is 0.001 µM.

As to `CC(c1ccccc1)n1cc(-c2ccc(N3CCc4cccc(C(=O)Nc5nc6ccccc6s5)c4C3)nc2C(=O)O)cn1` (centres unmarked) [Example 5, 6-[8-(1,3-benzothiazol-2-ylcarbamoyl)-3,4-dihydroisoquinolin-2(1H)-yl]-3-[1-(1-phenylethyl)-1H-pyrazol-4-yl]pyridine-2-carboxylic acid], the Ki in experiment [1] was 0.019 µM. For the same molecule, in experiment [2] (Mus musculus), the EC50 came out at 0.408 µM.

As for `COCCOC1(Cn2ncc(-c3ccc(N4CCc5cccc(C(=O)Nc6nc7ccccc7s6)c5C4)nc3C(=O)O)c2C)CCCCC1` [Example 101, 6-[8-(1,3-benzothiazol-2-ylcarbamoyl)-3,4-dihydroisoquinolin-2(1H)-yl]-3-(1-{[1-(2-methoxyethoxy)cyclohexyl]methyl}-5-methyl-1H-pyrazol-4-yl)pyridine-2-carboxylic acid], the Ki in experiment [1] is 0.0004 µM. Moreover, the EC50 in experiment [2] (Mus musculus) is less than 0.001 µM.

On to `O=C(Nc1nc2ccccc2s1)c1cccc2c1CN(c1ccc(-c3cnn(CCC4CCCCC4)c3)c(C(=O)O)n1)CC2` [Example 60, 6-[8-(1,3-benzothiazol-2-ylcarbamoyl)-3,4-dihydroisoquinolin-2(1H)-yl]-3-[1-(2-cyclohexylethyl)-1H-pyrazol-4-yl]pyridine-2-carboxylic acid], for which, in experiment [1], the Ki was determined as 0.005 µM. In addition, in experiment [2] (Mus musculus), the EC50 was 0.219 µM.

`N#Cc1cccc(Cn2cc(-c3ccc(N4CCc5cccc(C(=O)Nc6nc7ccccc7s6)c5C4)nc3C(=O)O)cn2)c1` [Example 24, 6-[8-(1,3-benzothiazol-2-ylcarbamoyl)-3,4-dihydroisoquinolin-2(1H)-yl]-3-[1-(3-cyanobenzyl)-1H-pyrazol-4-yl]pyridine-2-carboxylic acid]: the Ki in experiment [1] amounted to 0.064 µM. The EC50 in experiment [2] is more than 1 µM.

Regarding `COCCC1(Cn2ncc(-c3ccc(N4CCc5cccc(C(=O)Nc6nc7ccccc7s6)c5C4)nc3C(=O)O)c2C)CCCC(C)(C)C1` (centres unmarked) [Example 146, 6-[8-(1,3-benzothiazol-2-ylcarbamoyl)-3,4-dihydroisoquinolin-2(1H)-yl]-3-(1-{[1-(2-methoxyethyl)-3,3-dimethylcyclohexyl]methyl}-5-methyl-1H-pyrazol-4-yl)pyridine-2-carboxylic acid], in experiment [1], the Ki was less than 0.0001 µM. Moreover, in experiment [2] (Mus musculus), the EC50 stood at 0.011 µM.

For `Cc1c(-c2ccc(N3CCc4cccc(C(=O)Nc5nc6ccccc6s5)c4C3)nc2C(=O)O)c(CO)nn1Cc1ccccc1` [Example 30, 6-[8-(1,3-benzothiazol-2-ylcarbamoyl)-3,4-dihydroisoquinolin-2(1H)-yl]-3-[1-benzyl-3-(hydroxymethyl)-5-methyl-1H-pyrazol-4-yl]pyridine-2-carboxylic acid], in experiment [1], the Ki was determined as 0.002 µM. Moreover, the EC50 in experiment [2] (Mus musculus) stood at 0.298 µM.

A word on the Ki: it is a dissociation constant, usually derived from enzyme kinetics or from competition with a known ligand.
